Laboratory results reported in ChEMBL document CHEMBL1122916, “Synthesis of xanthines as adenosine antagonists, a practical quantitative structure-activity relationship application” (J Med Chem, 1985).
≈ marks a conversion by molar mass, not a printed value.

Experiments:
Bos taurus = organism: Bos taurus; test: log(1000/IC50 determined from bovine brain membrane) expressed as potency; format: functional
Adenosine receptor A1 [1] = target: T1, Adenosine receptor A1 (Bos taurus, UniProt P28190)
T1 sequence (P28190 whole entry): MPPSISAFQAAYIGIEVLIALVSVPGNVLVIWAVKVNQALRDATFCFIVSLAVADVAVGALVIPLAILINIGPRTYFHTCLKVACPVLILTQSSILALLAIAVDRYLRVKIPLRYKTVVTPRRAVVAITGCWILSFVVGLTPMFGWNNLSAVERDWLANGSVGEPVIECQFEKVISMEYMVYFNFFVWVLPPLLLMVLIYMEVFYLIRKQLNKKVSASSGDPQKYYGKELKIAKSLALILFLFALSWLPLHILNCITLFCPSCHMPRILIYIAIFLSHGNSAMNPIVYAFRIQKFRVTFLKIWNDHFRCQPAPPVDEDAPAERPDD
Description: Binding affinity against bovine brain adenosine A1 receptor by using N6-[3H]- cyclohexyladenosine

Adenosine receptor A1 [2] = target: T2, Adenosine receptor A1 (Rattus norvegicus, UniProt P25099); test: Binding affinity against rat brain adenosine A1 receptor by using N6-[3H]- cyclohexyladenosine as radioligand
T2 sequence (P25099 whole entry): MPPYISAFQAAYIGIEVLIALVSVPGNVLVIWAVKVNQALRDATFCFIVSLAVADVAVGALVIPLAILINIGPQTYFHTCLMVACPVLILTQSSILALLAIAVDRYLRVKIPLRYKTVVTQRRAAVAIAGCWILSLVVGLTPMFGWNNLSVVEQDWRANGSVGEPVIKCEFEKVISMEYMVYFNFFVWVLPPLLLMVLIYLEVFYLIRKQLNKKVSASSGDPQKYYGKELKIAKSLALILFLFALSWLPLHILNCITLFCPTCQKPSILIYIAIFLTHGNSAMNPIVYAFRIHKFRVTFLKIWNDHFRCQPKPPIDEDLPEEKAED

[3] = Equilibrium constant (pKa) was determined.; format: physicochemical
[4] = Partition coefficient (logP); format: physicochemical; conditions: octanol/water
[5] = Solubility in 0.1 N HCl; format: physicochemical
[6] = Solubility in 0.1 M phosphate buffer at pH 7.4; format: physicochemical
[7] = phosphate buffer, read-out: Solubility

Structure (SMILES)	Potency (Bos taurus)	IC50 (Adenosine receptor A1 [1]) [nM]	also measured
Cn1c(=O)c2nc(-c3ccccc3O)[nH]c2n(C)c1=O	2	–	–
Cn1c(=O)c2nc(-c3ccc(N)cc3N)[nH]c2n(C)c1=O	2.1	–	–
CN(C)c1cccc(-c2nc3c(=O)n(C)c(=O)n(C)c3[nH]2)c1	1.1	–	–
C=CCn1c(=O)c2nc(-c3ccc(S(=O)(=O)O)cc3)[nH]c2n(CC=C)c1=O	–	1140	IC50 (Adenosine receptor A1 [2]): 7440 nM
Cn1c(=O)c2nc(-c3ccc(N)cc3)[nH]c2n(C)c1=O	2.76	–	–
CCCn1c(=O)c2nc(-c3ccccc3)[nH]c2n(CCC)c1=O	3.15	–	–
COc1cccc(-c2nc3c(=O)n(C)c(=O)n(C)c3[nH]2)c1	1.7	–	–
Cn1c(=O)c2nc(-c3ccc(Cl)cc3)[nH]c2n(C)c1=O	3.1	–	–
Cn1c(=O)c2[nH]c(-c3ccc(Br)cc3)nc2n(C)c1=O	–	0.75	–
CCCn1c(=O)c2nc(-c3ccc(S(=O)(=O)NCCCC(=O)OCC)cc3)[nH]c2n(CCC)c1=O	–	0.24	IC50 (Adenosine receptor A1 [2]): 18.5 nM
Cn1c(=O)c2nc(-c3ccc([N+](=O)[O-])cc3)[nH]c2n(C)c1=O	2.1	–	–
C=CCn1c(=O)c2[nH]c(-c3ccccc3)nc2n(C)c1=O	2.4	–	–
CCc1ccc(-c2nc3c(=O)n(C)c(=O)n(C)c3[nH]2)cc1	3.1	–	–
Cn1c(=O)c2nc(-c3ccc([N+](=O)[O-])cc3N)[nH]c2n(C)c1=O	2.6	–	–
CCCn1c(=O)c2nc(-c3ccc(Cl)cc3N)[nH]c2n(CCC)c1=O	4.3	–	–
Cn1c(=O)c2nc(-c3cccc(F)c3)[nH]c2n(C)c1=O	2.4	–	–
CCCn1c(=O)c2nc(-c3ccc(S(=O)(=O)NCCCCN(C)C)cc3)[nH]c2n(CCC)c1=O	–	0.07	IC50 (Adenosine receptor A1 [2]): 7.5 nM
Cn1c(=O)c2nc(-c3cccc4ccccc34)[nH]c2n(C)c1=O	1.1	–	–
CCCn1c(=O)c2[nH]c(-c3ccc(S(=O)(=O)O)cc3)nc2n(CCC)c1=O	–	3.4	pKa [3]: < 2; logP [4]: -0.03; solubility [5]: 1300 µg/mL (≈ 3310 µM); IC50 (Adenosine receptor A1 [2]): 120 nM; solubility [6, 7]: > 24000 µg/mL
Cn1c(=O)c2nc(-c3ccc(F)cc3)[nH]c2n(C)c1=O	2.46	–	–
CCCCOc1ccc(-c2nc3c(=O)n(C)c(=O)n(C)c3[nH]2)cc1	2.4	–	–

Structure (SMILES)	Potency (Bos taurus)	IC50 (Adenosine receptor A1 [1]) [nM]	also measured
CCn1c(=O)c2[nH]c(-c3ccc(S(=O)(=O)N4CCOCC4)cc3)nc2n(CC)c1=O	–	13	IC50 (Adenosine receptor A1 [2]): 310 nM
Cn1c(=O)c2nc(-c3cccc(N)c3)[nH]c2n(C)c1=O	2	–	–
Cn1c(=O)c2nc(-c3ccccc3N)[nH]c2n(C)c1=O	2.26	5.5	–
CCn1c(=O)c2[nH]c(-c3ccccc3)nc2n(CC)c1=O	–	–	pKa [3]: 9.1; logP [4]: 2.93; solubility [5]: 1 µg/mL (≈ 3.52 µM); solubility ([6]; buffer): 6 µg/mL (≈ 21.1 µM)
Cc1cccc(-c2nc3c(=O)n(C)c(=O)n(C)c3[nH]2)c1	1.89	–	–
Cc1ccccc1-c1nc2c([nH]1)c(=O)n(C)c(=O)n2C	–	6.5	–
Cc1ccccc1-c1nc2c(=O)n(C)c(=O)n(C)c2[nH]1	2.19	–	–
CCn1c(=O)c2[nH]c(-c3ccc(S(=O)(=O)O)cc3)nc2n(CC)c1=O	–	755	pKa [3]: < 2; logP [4]: -0.97; solubility [5]: > 8000 µg/mL; IC50 (Adenosine receptor A1 [2]): 5540 nM; solubility [6, 7]: > 57000 µg/mL
CC(C)c1ccc(-c2nc3c(=O)n(C)c(=O)n(C)c3[nH]2)cc1	2.6	–	–
CCOc1ccc(-c2nc3c(=O)n(C)c(=O)n(C)c3[nH]2)cc1	2.7	–	–
Cc1ccc(-c2nc3c(=O)n(C)c(=O)n(C)c3[nH]2)c(N)c1	2	–	–
Cn1c(=O)c2nc(-c3cccc(O)c3)[nH]c2n(C)c1=O	2.22	–	–
CCn1c(=O)c2nc(-c3ccc(S(=O)(=O)NCC(C)O)cc3)[nH]c2n(CC)c1=O (stereo not drawn)	–	4.2	IC50 (Adenosine receptor A1 [2]): 138 nM
Cn1c(=O)c2nc(-c3ccc4ccccc4c3)[nH]c2n(C)c1=O	2.26	–	–
CCn1c(=O)c2nc(-c3ccc(Cl)cc3N)[nH]c2n(CC)c1=O	3.1	–	–
Cn1c(=O)c2nc(-c3ccccc3C(=O)O)[nH]c2n(C)c1=O	-0.4	–	–
Cn1c(=O)c2[nH]c(-c3ccc(N)cc3)nc2n(C)c1=O	–	1.75	–
COc1ccc(-c2nc3c(=O)n(C)c(=O)n(C)c3[nH]2)c(OC)c1	0.7	–	–
CCn1c(=O)c2[nH]c(-c3ccc(N(C)C)cc3)nc2n(CC)c1=O	–	3.3	IC50 (Adenosine receptor A1 [2]): 118 nM
Cc1ccc(-c2nc3c(=O)n(C)c(=O)n(C)c3[nH]2)cc1	3.1	–	–
Cn1c(=O)c2nc(-c3ccc(Cl)c(Cl)c3)[nH]c2n(C)c1=O	2.3	–	–

Structure (SMILES)	Potency (Bos taurus)	IC50 (Adenosine receptor A1 [1]) [nM]	also measured
CCCn1c(=O)c2nc(-c3ccc(N)cc3N)[nH]c2n(CCC)c1=O	3.82	0.15	–
C=CCn1c(=O)c2nc(-c3ccc(Cl)cc3N)[nH]c2n(CC=C)c1=O	3.1	–	–
CCCn1c(=O)c2[nH]c(-c3ccc(S(=O)(=O)NCCCN(C)C)cc3)nc2n(CCC)c1=O	–	0.08	IC50 (Adenosine receptor A1 [2]): 8.2 nM
Cn1c(=O)c2nc(-c3cccc(C(=O)O)c3)[nH]c2n(C)c1=O	0	–	–
Cn1c(=O)c2nc(-c3ccccc3[N+](=O)[O-])[nH]c2n(C)c1=O	1.1	–	–
CCn1c(=O)c2[nH]c(-c3ccc(S(=O)(=O)NCCCN(C)C)cc3)nc2n(CC)c1=O	–	1.6	IC50 (Adenosine receptor A1 [2]): 70 nM
CSc1ccc(-c2nc3c(=O)n(C)c(=O)n(C)c3[nH]2)cc1	2.7	–	–
CN(C)c1ccc(-c2nc3c(=O)n(C)c(=O)n(C)c3[nH]2)cc1	2.74	–	–
COc1ccc(-c2nc3c(=O)n(C)c(=O)n(C)c3[nH]2)cc1	2.82	–	–
C=CCn1c(=O)c2nc(-c3ccc(S(=O)(=O)NCCCN(C)C)cc3)[nH]c2n(CC=C)c1=O	–	10.3	–
Cn1c(=O)c2[nH]c(-c3ccc4ccccc4c3)nc2n(C)c1=O	–	5.5	–
CCn1c(=O)c2nc(-c3ccc(Br)cc3)[nH]c2n(CC)c1=O	3	–	–
Cn1c(=O)c2[nH]c(-c3ccc(Cl)cc3N)nc2n(C)c1=O	–	0.35	–
CCn1c(=O)c2nc(-c3ccc(S(=O)(=O)NCCN(C)C)cc3)[nH]c2n(CC)c1=O	–	3.3	pKa [3]: 6.8; logP [4]: 2.57; solubility [5]: 11500 µg/mL (≈ 26500 µM); IC50 (Adenosine receptor A1 [2]): 116 nM; solubility [6, 7]: 110 µg/mL (≈ 253 µM)
CCCn1c(=O)c2[nH]c(-c3ccc(Cl)cc3N)nc2n(CCC)c1=O	–	–	pKa [3]: 8.4; logP [4]: 4.02; solubility [5]: 0.4 µg/mL (≈ 1.11 µM); solubility [6, 7]: < 0.1 µg/mL
C=CCn1c(=O)c2[nH]c(-c3ccc(Cl)cc3N)nc2n(C)c1=O	2.7	–	–
CCn1c(=O)c2[nH]c(-c3ccc(S(N)(=O)=O)cc3)nc2n(CC)c1=O	–	0.91	IC50 (Adenosine receptor A1 [2]): 47 nM
Cn1c(=O)c2nc(-c3ccc(Br)cc3)[nH]c2n(C)c1=O	3.12	–	–
Cn1c(=O)c2nc(-c3cccc(Br)c3)[nH]c2n(C)c1=O	2	–	–
Cn1c(=O)c2nc(-c3ccc(-c4ccccc4)cc3)[nH]c2n(C)c1=O	2.46	–	–
Cn1c(=O)c2nc(-c3ccc(C(=O)O)cc3)[nH]c2n(C)c1=O	1.3	–	–

Structure (SMILES)	Potency (Bos taurus)	IC50 (Adenosine receptor A1 [1]) [nM]	also measured
CCn1c(=O)c2[nH]c(-c3ccc(S(=O)(=O)N4CCSCC4)cc3)nc2n(CC)c1=O	–	36.6	IC50 (Adenosine receptor A1 [2]): 646 nM
CCCn1c(=O)c2nc(-c3ccccc3N)[nH]c2n(CCC)c1=O	–	0.75	pKa [3]: 9.1; logP [4]: 3.54; solubility [5]: 4 µg/mL (≈ 12.2 µM); IC50 (Adenosine receptor A1 [2]): 41 nM; solubility [6, 7]: < 1 µg/mL
Cn1c(=O)c2nc(-c3cccc([N+](=O)[O-])c3)[nH]c2n(C)c1=O	1.3	–	–
Cn1c(=O)c2nc(-c3ccc(Cl)cc3N)[nH]c2n(C)c1=O	3.46	–	–
CCn1c(=O)c2[nH]c(-c3cccc(S(=O)(=O)O)c3)nc2n(CC)c1=O	–	8420	IC50 (Adenosine receptor A1 [2]): 30700 nM
COc1ccccc1-c1nc2c(=O)n(C)c(=O)n(C)c2[nH]1	0.46	–	–
C=CCn1c(=O)c2[nH]c(-c3ccc(C)cc3N)nc2n(C)c1=O	2.15	–	–
Cc1cc(O)cc(C)c1-c1nc2c(=O)n(C)c(=O)n(C)c2[nH]1	1.52	–	–
Cn1c(=O)c2nc(-c3ccc(O)cc3)[nH]c2n(C)c1=O	2.7	–	–
CCn1c(=O)c2nc(-c3cccc(S(=O)(=O)NCCN(C)C)c3)[nH]c2n(CC)c1=O	–	29.4	IC50 (Adenosine receptor A1 [2]): 553 nM
CCCn1c(=O)c2[nH]c(-c3ccccc3)nc2n(CCC)c1=O	–	0.7	–
COc1cc(OC)cc(-c2nc3c(=O)n(C)c(=O)n(C)c3[nH]2)c1	0.3	–	–
Cn1c(=O)c2nc(-c3ccccc3F)[nH]c2n(C)c1=O	1.9	–	–
CCCn1c(=O)c2nc(-c3ccc(S(=O)(=O)NCCN(C)C)cc3)[nH]c2n(CCC)c1=O	–	0.05	pKa [3]: 6; logP [4]: 3.32; solubility [5]: 19900 µg/mL (≈ 43000 µM); IC50 (Adenosine receptor A1 [2]): 6.5 nM; solubility ([6]; buffer): 50 µg/mL (≈ 108 µM)
Cn1c(=O)c2[nH]c(-c3ccc(S(=O)(=O)O)cc3)nc2n(C)c1=O	–	21.9	–
Cn1c(=O)c2nc(-c3ccc(I)cc3)[nH]c2n(C)c1=O	2.89	–	–
Cn1c(=O)[nH]c2[nH]c(-c3ccccc3)nc2c1=O	2.6	–	–
CCn1c(=O)c2nc(-c3ccc(S(=O)(=O)N4CCN(C)CC4)cc3)[nH]c2n(CC)c1=O	–	6.5	IC50 (Adenosine receptor A1 [2]): 190 nM
Cn1c(=O)c2[nH]c(-c3ccccc3F)nc2n(C)c1=O	–	12.5	–
